# Source: patent US20090105349A1, “ANDROGEN MODULATORS” (WARNER-LAMBERT COMPANY LLC, priority 2004, published 2009)
# Residue numbers refer to the chain shown, from its start.
# Biological target: T1, androgen receptor in MDA-MB453-MMTV clone 54-19 cells (Homo sapiens, UniProt P10275)
# T1 sequence (P10275 1-920 Q868H): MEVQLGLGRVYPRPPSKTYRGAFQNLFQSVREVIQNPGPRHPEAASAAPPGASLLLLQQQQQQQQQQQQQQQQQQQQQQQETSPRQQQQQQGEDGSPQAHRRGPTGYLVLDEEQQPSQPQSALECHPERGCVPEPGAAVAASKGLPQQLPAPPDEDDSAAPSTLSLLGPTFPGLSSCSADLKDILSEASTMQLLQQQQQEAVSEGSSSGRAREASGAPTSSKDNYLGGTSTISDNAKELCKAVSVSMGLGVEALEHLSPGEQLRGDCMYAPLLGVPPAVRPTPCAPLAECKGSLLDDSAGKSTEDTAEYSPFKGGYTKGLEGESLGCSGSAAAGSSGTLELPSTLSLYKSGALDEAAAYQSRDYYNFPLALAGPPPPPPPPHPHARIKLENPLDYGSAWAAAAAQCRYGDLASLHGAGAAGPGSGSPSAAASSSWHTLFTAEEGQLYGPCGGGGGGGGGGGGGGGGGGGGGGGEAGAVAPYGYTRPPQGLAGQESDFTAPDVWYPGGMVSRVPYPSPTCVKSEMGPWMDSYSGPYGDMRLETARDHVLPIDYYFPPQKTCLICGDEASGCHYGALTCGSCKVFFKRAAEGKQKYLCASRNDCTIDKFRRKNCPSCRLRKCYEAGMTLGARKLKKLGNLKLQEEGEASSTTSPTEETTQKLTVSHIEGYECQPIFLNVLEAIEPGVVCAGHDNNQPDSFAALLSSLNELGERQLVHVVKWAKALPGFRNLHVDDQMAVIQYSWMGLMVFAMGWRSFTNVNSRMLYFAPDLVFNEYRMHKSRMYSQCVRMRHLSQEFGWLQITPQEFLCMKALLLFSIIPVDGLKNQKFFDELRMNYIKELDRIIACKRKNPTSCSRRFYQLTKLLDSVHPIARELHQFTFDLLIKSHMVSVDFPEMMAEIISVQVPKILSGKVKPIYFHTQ
# Test: AR antagonist cell assay (MMTV-luciferase reporter)
# Assay type: cell-based
# Details: MDA-MB453-MMTV clone 54-19, inhibition of DHT induced luciferase, 17 hr; mean of multiple tests; read-out: AR Cell IC50
# Experimental: The compounds ability to antagonize the effects of androgen on the androgen receptor were determined in a whole cell assay as described immediately below.
# This cell line is a stable transfected cell line with MDA-MB453 cell background (a human breast tumor cell line expressing androgen receptor). A MMTV minimal promoter containing ARE was first cloned in front of a firefly luciferase reporter gene. Then the cascade was cloned into transfection vector pUV120puro. […] Puromycin resistant stable cell line was selected.
# Plating medium: DMEM (phenol red free), 10% charcoal treated HyClone serum, 1% L-glutamine
# Assay medium: DMEM (phenol red free), 1% charcoal treated HyClone serum, 1% L-glutamine, and 1% penicillin/streptomycin
# Assay procedure: • 1. Cells are maintained in culture medium, splitting cells when they reach 80-90% confluence • 2. To test compounds, 10,000 cells/well are plated to opaque 96 cell culture plate in 100 ul/well plating medium, culture for overnight at 37° C. in cell culture incubator • 3. […] Add 10 ul/well freshly prepared DHT (final concentration at […]) to each well, incubate at 37° C. for 17 hr (overnight) • 5.
# The results are reported as the mean of multiple tests as described below (the numbers of tests are indicated in the footnote). N.D. denotes that the compound was not tested.
row,SMILES,IC50 [nM]
1,"N#Cc1ccc(Oc2ccccc2C(N)=O)cc1Cl [Example 8, 2-(3-Chloro-4-cyano-phenoxy)-benzamide]",> 1000
2,"COc1ccccc1Oc1ccc(C#N)cc1Cl [Example 10, 3-Chloro-4-(2-methoxy-phenoxy)-benzonitrile]",319
3,"Cc1cc(C)c(Oc2ccc(C#N)cc2Cl)c(C)c1 [Example 15, 3-Chloro-(2,4,6-trimethyl-phenoxy)-benzonitrile]",> 1000
4,"Cc1cccc(C)c1Oc1ccc(C#N)cc1Cl [Example 16, 3-Chloro-4-(2,,6-dimethyl-phenoxy)-benzonitrile]",161

# Same assay, conditions: read-out: AR Cell IC50; MDA-MB453-MMTV clone 54-19, inhibition of DHT induced luciferase, 17 hr; mean of multiple tests
row,SMILES,IC50 [nM]
1,"CSc1ccccc1Oc1ccc(C#N)c(Cl)c1 [Example 3, 2-Chloro-4-(2-methylsulfanyl-phenoxy)-benzonitrile]",< 0.32

# Biological target: T2, hAR (human androgen receptor) (Homo sapiens, UniProt P10275)
# T2 construct: made in house; host or cells: baculovirus/Sf9 insect cells (crude extract)
# T2 sequence (P10275 1-920): T1 sequence (P10275 1-920 Q868H) with H868Q
# Test: Competitive hAR binding assay with 3H-DHT tracer
# Details: not given
# Experimental: The description below describes how the assay was carried out.
# Competitive binding analysis was performed on baculovirus/Sf9 generated hAR extracts in the presence or absence of different concentrations of test agent and a fixed concentration of ^3H-dihydrotestosterone (3H-DHT) as tracer. […] Subsequently, the binding reactions are washed three times to completely remove excess unbound ^3H-DHT. hAR bound ^3H-DHT levels are determined in the presence of compounds (i.e. competitive binding) and compared to levels bound when no competitor is present (i.e. maximum binding). Compound binding affinity to the hAR is expressed as the concentration of compound at which one half of the maximum binding is inhibited.
row,SMILES,IC50 [nM]
1,"CSc1ccccc1Oc1ccc(C#N)c(Cl)c1 [Example 3, 2-Chloro-4-(2-methylsulfanyl-phenoxy)-benzonitrile]",47
2,"Cc1ccc(F)c(Oc2ccc(C#N)cc2Cl)c1F [Example 6, 3-Chloro-(2,6-difluro-5-methyl-phenoxy)benzonitrile]",59
3,"COc1ccccc1Oc1ccc(C#N)cc1Cl [Example 10, 3-Chloro-4-(2-methoxy-phenoxy)-benzonitrile]",29
4,"Cc1cc(C)c(Oc2ccc(C#N)cc2Cl)c(C)c1 [Example 15, 3-Chloro-(2,4,6-trimethyl-phenoxy)-benzonitrile]",16
5,"Cc1cccc(C)c1Oc1ccc(C#N)cc1Cl [Example 16, 3-Chloro-4-(2,,6-dimethyl-phenoxy)-benzonitrile]",16
6,"CCOc1ccccc1Oc1ccc(C#N)c(Cl)c1 [Example 70, 2-Chloro-4-(2-ethoxy-phenoxy)-benzonitrile]",19
7,"CC(N)c1cc(F)ccc1Oc1ccc(C#N)c(C(F)(F)F)c1 (stereo not shown) [Example 122, 4-[2-(1-aminoethyl)-4-fluoro-phenoxy]-2-trifluoromethyl-benzonitrile]",2

# Same assay, conditions: baculovirus/Sf9 hAR extract, 1 nM 3H-DHT, one hour at 4° C; mean of multiple tests; read-out: AR Binding IC50
row,SMILES,IC50 [nM]
1,"CCSc1ccccc1Oc1ccc(C#N)cc1Cl [Example 1, 3-Chloro-4-(2-ethylsulfanyl-phenoxy)-benzonitrile]",281
2,"N#Cc1ccc(Oc2ccccc2[N+](=O)[O-])c(Cl)c1 [Example 2, 3-Chloro-4-(2-nitro-phenoxy)-benzonitrile]",472
3,"N#Cc1ccc(Oc2ccccc2C(N)=O)cc1Cl [Example 8, 2-(3-Chloro-4-cyano-phenoxy)-benzamide]",222
4,"Cc1ccc(C)c(Oc2ccc(C#N)cc2Cl)c1 [Example 9, 3-Chloro-4-(2,5-dimethyl-phenoxy)-benzonitrile]",356
5,"C=CCc1cccc(C)c1Oc1ccc(C#N)cc1Cl [Example 11, 4-(2-Allyl-6-methyl-phenoxy)-3-chloro-benzonitrile]",242
6,"Cc1ccc(C(C)C)c(Oc2ccc(C#N)cc2Cl)c1 [Example 14, 3-Chloro-4-(2-isopropyl-5-methyl-phenoxy)-benzonitrile]",375
7,"CCN(CC)C(=O)c1ccccc1Oc1ccc(C#N)cc1Cl [Example 18, 2-(2-Chloro-4-cyano-phenoxy)-N,N-diethyl-benzamide]",402
8,"Cc1ccc(Oc2ccc(C#N)cc2Cl)c(C)c1 [Example 21, 3-Chloro-4-(2,4-dimethyl-phenoxy)-benzonitrile]",263
9,"COc1ccc(C)cc1Oc1ccc(C#N)cc1Cl [Example 22, 3-Chloro-4-(2-methoxy-5-methyl-phenoxy)-benzonitrile]",491
10,"Cc1cccc(Oc2ccc(C#N)cc2Cl)c1 [Example 28, 3-Chloro-4-m-tolyloxy-benzonitrile]",412
11,"N#Cc1ccc(Oc2ccc3c(c2)CCC3)cc1Cl [Example 43, 2-Chloro-4-(indan-5-yloxy)-benzonitrile]",439
12,"CCOC(=O)c1ccc(Oc2ccc(C#N)c(Cl)c2)c(OC)c1 [Example 55, 4-(3-Chloro-4-cyano-phenoxy)-3-methoxy-benzoic acid ethyl ester]",300
13,"Cc1ccc(-c2ccc(Oc3ccc(C#N)c(Cl)c3)c(C)c2)cc1 [Example 58, 2-Chloro-4-(3,4′-dimethyl-biphenyl-4-yloxy)-benzonitrile]",436
14,"Cc1ccc(Oc2ccc(C#N)c(Cl)c2)c(Cc2ccccc2)c1 [Example 62, 4-(2-Benzyl-4-methyl-phenoxy)-2-chloro-benzonitrile]",326
15,"CCOc1ccccc1Oc1ccc(C#N)cc1Cl [Example 71, 3-Chloro-4-(2-ethoxy-phenoxy)-benzonitrile]",299
16,"N#Cc1ccc(Oc2cccc3ccccc23)c(Cl)c1 [Example 72, 3-Chloro-4-(naphthalen-1-yloxy)-benzonitrile]",478
17,"Cc1ccc(Oc2ccc(C#N)c(Cl)c2)c(C(C)(C)C)c1 [Example 73, 4-(2-tert-Butyl-4-methyl-phenoxy)-2-chloro-benzonitrile]",253
18,"COc1cc(C(C)=O)ccc1Oc1ccc(C#N)c(C(F)(F)F)c1 [Example 74, 4-(4-Acetyl-2-methoxy-phenoxy)-2-trifluoromethyl-benzonitrile]",1480
19,"CC(=O)c1ccc(Oc2ccc(C#N)c(C(F)(F)F)c2)cc1 [Example 75, 4-(4-Acetyl-phenoxy)-2-trifluoromethyl-benzonitrile]",443
20,"N#Cc1ccc(Oc2ccccc2[N+](=O)[O-])cc1C(F)(F)F [Example 77, 4-(2-Nitro-phenoxy)-2-trifluoromethyl-benzonitrile]",458
21,"CCN(CC)Cc1c(C)ccc(C)c1Oc1ccc(C#N)c(C(F)(F)F)c1 [Example 89, 4-(2-Diethylaminomethyl-3,6-dimethyl-phenoxy)-2-trifluoromethyl-benzonitrile]",255
22,"N#Cc1ccc(Oc2ccccc2OCc2ccccc2)cc1C(F)(F)F [Example 92, 4-(2-Benzyloxy-phenoxy)-2-trifluoromethyl-benzonitrile]",361
23,"N#Cc1ccccc1Oc1ccc(C#N)c(C(F)(F)F)c1 [Example 112, 4-(2-Cyano-phenoxy)-2-trifluoromethyl-benzonitrile]",315
24,"C[C@H](O)CNC(=O)c1ccccc1Oc1ccc(C#N)c(C(F)(F)F)c1 [Example 113, 2-(4-Cyano-3-trifluoromethyl-phenoxy)-N-(2-hydroxy-propyl)-benzamide]",353
25,"CC(C)(CO)CNC(=O)c1ccccc1Oc1ccc(C#N)c(C(F)(F)F)c1 [Example 114, 2-(4-Cyano-3-trifluoromethyl-phenoxy)-N-(3-hydroxy-2,2-dimethyl-propyl)-benzamide]",402
